Laboratory results reported in the supplement of paper PMC10307832.

Experiments:
Assay in all cases: relative viability (nuclei count vs DMSO), 5 days (fraction); higher = more cells survive
[1] = tested on: NCI-H2126
Method in brief: (§1)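 For relative viability, nuclei counts in treated wells were divided by those in vehicle wells. Lung cancer cell lines had been pin-tool dosed in 1536-well plates the day after seeding and cultured for 5 days, then fixed and stained in one step (final 0.05% Triton X-100, 1% formaldehyde, 1 ug/ml Hoechst) and imaged at 4×. Doses were one drug alone or a fixed anchor-drug dose plus five library-drug doses (not always all listed) in √10 steps, and values are duplicate-plate medians.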

[2] = tested on: NCI-H3122
Method in brief: as §1

[3] = tested on: HOP-62
Method in brief: as §1

[4] = tested on: ChaGo-K-1
Method in brief: as §1

[5] = tested on: ABC-1
Method in brief: as §1

[6] = tested on: NCI-H1651
Method in brief: as §1

[7] = tested on: EMC-BAC-2
Method in brief: as §1

[8] = tested on: NCI-H2087
Method in brief: as §1

[9] = tested on: NCI-H1755
Method in brief: as §1

[10] = tested on: LXF-289
Method in brief: as §1

[11] = tested on: NCI-H2009
Method in brief: as §1

[12] = tested on: NCI-H322M
Method in brief: as §1

[13] = tested on: NCI-H1734
Method in brief: as §1

[14] = tested on: SK-MES-1
Method in brief: as §1

[15] = tested on: NCI-H441
Method in brief: as §1

[16] = tested on: LK-2
Method in brief: as §1

[17] = tested on: NCI-H596
Method in brief: as §1

[18] = tested on: CAL-12T
Method in brief: as §1

[19] = tested on: 201T
Method in brief: as §1

[20] = tested on: H3255
Method in brief: as §1

[21] = tested on: NCI-H647
Method in brief: as §1

[22] = tested on: NCI-H2170
Method in brief: as §1

[23] = tested on: PC-14
Method in brief: as §1

**Q.** Which relative viability ([1]; first compound 0.08 µM) does the source give for `Cc1cnc(-c2cnc(NCCNc3ccc(C#N)cn3)nc2-c2ccc(Cl)cc2Cl)[nH]1` + COc1cc2c(Oc3ccc(NC(=O)C4(C(=O)Nc5ccc(F)cc5)CC4)cc3F)ccnc2cc1OCCCN1CCOCC1 [Foretinib] (partner 0.25 µM) here?
**A.** The relative viability was 1.33.

**Q.** What about the relative viability ([1]; first compound 0.253 µM) of the same molecule?
**A.** Its relative viability is 1.22.

**Q.** What about the relative viability ([1]; first compound 0.8 µM) of the same molecule?
**A.** Its relative viability is 1.

**Q.** What about the relative viability ([1]; first compound 2.53 µM) of the same molecule?
**A.** Its relative viability is 1.08.

**Q.** And the relative viability ([2]; first compound 0.08 µM)?
**A.** The relative viability was 0.943.

**Q.** What about the relative viability ([2]; first compound 0.8 µM) of the same molecule?
**A.** Its relative viability is 0.935.

**Q.** What about the relative viability ([2]; first compound 2.53 µM) of the same molecule?
**A.** The relative viability was 0.914.

**Q.** What about the relative viability ([3]; first compound 0.08 µM) of the same molecule?
**A.** Its relative viability is 1.05.

**Q.** What about the relative viability ([3]; first compound 0.253 µM) of the same molecule?
**A.** Its relative viability is 1.02.

**Q.** And the relative viability ([3]; first compound 0.8 µM)?
**A.** Its relative viability is 1.12.

**Q.** What about the relative viability ([3]; first compound 2.53 µM) of the same molecule?
**A.** The relative viability was 0.947.

**Q.** And the relative viability ([4]; first compound 0.08 µM)?
**A.** The relative viability was 0.941.

**Q.** What about the relative viability ([4]; first compound 0.253 µM) of the same molecule?
**A.** The relative viability was 0.84.

**Q.** And the relative viability ([4]; first compound 0.8 µM)?
**A.** Its relative viability is 0.945.

**Q.** What about the relative viability ([4]; first compound 2.53 µM) of the same molecule?
**A.** Its relative viability is 0.921.

**Q.** What about the relative viability ([5]; first compound 0.08 µM) of the same molecule?
**A.** Its relative viability is 1.32.

**Q.** What about the relative viability ([5]; first compound 0.253 µM) of the same molecule?
**A.** The relative viability was 1.31.

**Q.** What about the relative viability ([5]; first compound 0.8 µM) of the same molecule?
**A.** Its relative viability is 1.34.

**Q.** What about the relative viability ([5]; first compound 2.53 µM) of the same molecule?
**A.** The relative viability was 1.2.

**Q.** And the relative viability ([6]; first compound 0.08 µM)?
**A.** The relative viability was 0.728.

**Q.** What about the relative viability ([6]; first compound 0.253 µM) of the same molecule?
**A.** Its relative viability is 0.777.

**Q.** And the relative viability ([6]; first compound 0.8 µM)?
**A.** Its relative viability is 0.785.

**Q.** What about the relative viability ([6]; first compound 2.53 µM) of the same molecule?
**A.** Its relative viability is 0.883.

**Q.** And the relative viability ([7]; first compound 0.08 µM)?
**A.** The relative viability was 1.1.

**Q.** What about the relative viability ([7]; first compound 0.253 µM) of the same molecule?
**A.** The relative viability was 0.964.

**Q.** And the relative viability ([7]; first compound 0.8 µM)?
**A.** The relative viability was 1.02.

**Q.** And the relative viability ([7]; first compound 2.53 µM)?
**A.** Its relative viability is 0.939.

**Q.** And the relative viability ([8]; first compound 0.08 µM)?
**A.** The relative viability was 1.31.

**Q.** And the relative viability ([8]; first compound 0.253 µM)?
**A.** Its relative viability is 1.06.

**Q.** What about the relative viability ([8]; first compound 0.8 µM) of the same molecule?
**A.** The relative viability was 1.14.

**Q.** What about the relative viability ([8]; first compound 2.53 µM) of the same molecule?
**A.** The relative viability was 1.14.

**Q.** And the relative viability ([9]; first compound 0.08 µM)?
**A.** The relative viability was 0.936.

**Q.** And the relative viability ([9]; first compound 0.253 µM)?
**A.** Its relative viability is 0.808.

**Q.** What about the relative viability ([9]; first compound 0.8 µM) of the same molecule?
**A.** The relative viability was 0.982.

**Q.** And the relative viability ([9]; first compound 2.53 µM)?
**A.** Its relative viability is 0.972.

**Q.** What about the relative viability ([10]; first compound 0.08 µM) of the same molecule?
**A.** Its relative viability is 1.03.

**Q.** And the relative viability ([10]; first compound 0.253 µM)?
**A.** The relative viability was 0.858.

**Q.** And the relative viability ([10]; first compound 0.8 µM)?
**A.** The relative viability was 0.994.

**Q.** What about the relative viability ([10]; first compound 2.53 µM) of the same molecule?
**A.** The relative viability was 1.02.

**Q.** What about the relative viability ([11]; first compound 0.08 µM) of the same molecule?
**A.** The relative viability was 1.27.

**Q.** And the relative viability ([11]; first compound 0.253 µM)?
**A.** The relative viability was 1.21.

**Q.** What about the relative viability ([11]; first compound 0.8 µM) of the same molecule?
**A.** Its relative viability is 1.35.

**Q.** And the relative viability ([11]; first compound 2.53 µM)?
**A.** Its relative viability is 1.03.

**Q.** What about the relative viability ([12]; first compound 0.08 µM) of the same molecule?
**A.** The relative viability was 1.07.

**Q.** What about the relative viability ([12]; first compound 0.253 µM) of the same molecule?
**A.** Its relative viability is 0.856.

**Q.** And the relative viability ([12]; first compound 0.8 µM)?
**A.** Its relative viability is 1.

**Q.** And the relative viability ([12]; first compound 2.53 µM)?
**A.** Its relative viability is 1.2.

**Q.** What about the relative viability ([13]; first compound 0.08 µM) of the same molecule?
**A.** The relative viability was 0.926.

**Q.** And the relative viability ([13]; first compound 0.253 µM)?
**A.** The relative viability was 0.762.

**Q.** And the relative viability ([13]; first compound 0.8 µM)?
**A.** Its relative viability is 0.834.

**Q.** What about the relative viability ([13]; first compound 2.53 µM) of the same molecule?
**A.** The relative viability was 0.83.

**Q.** What about the relative viability ([14]; first compound 0.08 µM) of the same molecule?
**A.** The relative viability was 1.09.

**Q.** What about the relative viability ([14]; first compound 0.253 µM) of the same molecule?
**A.** Its relative viability is 0.909.

**Q.** What about the relative viability ([14]; first compound 0.8 µM) of the same molecule?
**A.** The relative viability was 0.942.

**Q.** And the relative viability ([14]; first compound 2.53 µM)?
**A.** Its relative viability is 1.02.

**Q.** And the relative viability ([15]; first compound 0.08 µM)?
**A.** Its relative viability is 1.2.

**Q.** What about the relative viability ([15]; first compound 0.253 µM) of the same molecule?
**A.** Its relative viability is 0.926.

**Q.** What about the relative viability ([15]; first compound 0.8 µM) of the same molecule?
**A.** Its relative viability is 1.01.

**Q.** And the relative viability ([15]; first compound 2.53 µM)?
**A.** Its relative viability is 0.958.

**Q.** What about the relative viability ([16]; first compound 0.08 µM) of the same molecule?
**A.** The relative viability was 1.6.

**Q.** What about the relative viability ([16]; first compound 0.253 µM) of the same molecule?
**A.** The relative viability was 0.82.

**Q.** What about the relative viability ([16]; first compound 0.8 µM) of the same molecule?
**A.** The relative viability was 0.942.

**Q.** What about the relative viability ([16]; first compound 2.53 µM) of the same molecule?
**A.** The relative viability was 1.21.

**Q.** What about the relative viability ([17]; first compound 0.08 µM) of the same molecule?
**A.** The relative viability was 0.929.

**Q.** And the relative viability ([17]; first compound 0.253 µM)?
**A.** Its relative viability is 0.776.

**Q.** What about the relative viability ([17]; first compound 0.8 µM) of the same molecule?
**A.** The relative viability was 0.872.

**Q.** What about the relative viability ([17]; first compound 2.53 µM) of the same molecule?
**A.** Its relative viability is 0.827.

**Q.** And the relative viability ([18]; first compound 0.08 µM)?
**A.** The relative viability was 1.07.

**Q.** What about the relative viability ([18]; first compound 0.253 µM) of the same molecule?
**A.** Its relative viability is 0.946.

**Q.** What about the relative viability ([18]; first compound 0.8 µM) of the same molecule?
**A.** Its relative viability is 1.15.

**Q.** And the relative viability ([18]; first compound 2.53 µM)?
**A.** The relative viability was 0.979.

**Q.** What about the relative viability ([19]; first compound 0.08 µM) of the same molecule?
**A.** Its relative viability is 1.19.

**Q.** And the relative viability ([19]; first compound 0.253 µM)?
**A.** Its relative viability is 0.807.

**Q.** And the relative viability ([19]; first compound 0.8 µM)?
**A.** The relative viability was 1.16.

**Q.** What about the relative viability ([19]; first compound 2.53 µM) of the same molecule?
**A.** The relative viability was 1.14.

**Q.** And the relative viability ([20]; first compound 0.08 µM)?
**A.** The relative viability was 0.956.

**Q.** And the relative viability ([20]; first compound 0.253 µM)?
**A.** The relative viability was 0.696.

**Q.** And the relative viability ([20]; first compound 0.8 µM)?
**A.** Its relative viability is 0.988.

**Q.** And the relative viability ([20]; first compound 2.53 µM)?
**A.** The relative viability was 0.841.

**Q.** What about the relative viability ([21]; first compound 0.08 µM) of the same molecule?
**A.** Its relative viability is 1.35.

**Q.** And the relative viability ([21]; first compound 0.253 µM)?
**A.** Its relative viability is 1.03.

**Q.** And the relative viability ([21]; first compound 0.8 µM)?
**A.** The relative viability was 0.938.

**Q.** And the relative viability ([21]; first compound 2.53 µM)?
**A.** The relative viability was 1.15.

**Q.** And the relative viability ([22]; first compound 0.08 µM)?
**A.** The relative viability was 0.953.

**Q.** And the relative viability ([22]; first compound 0.253 µM)?
**A.** The relative viability was 0.906.

**Q.** What about the relative viability ([22]; first compound 0.8 µM) of the same molecule?
**A.** The relative viability was 0.965.

**Q.** And the relative viability ([22]; first compound 2.53 µM)?
**A.** The relative viability was 0.997.

**Q.** What about the relative viability ([23]; first compound 0.08 µM) of the same molecule?
**A.** Its relative viability is 0.978.

**Q.** What about the relative viability ([23]; first compound 0.253 µM) of the same molecule?
**A.** The relative viability was 0.852.

**Q.** And the relative viability ([23]; first compound 0.8 µM)?
**A.** The relative viability was 0.941.

**Q.** What about the relative viability ([23]; first compound 2.53 µM) of the same molecule?
**A.** Its relative viability is 0.894.
